# US8158650B2, “Substituted phenylmethyl bicyclocarboxyamide compounds” (Pfizer Inc., priority 2006, dated 2012)
# pIC50: −log10 of the molar value.
# Target: human VR1 (Homo sapiens, UniProt Q8NER1)
# Test: Human VR1 antagonist assay (Ca2+ imaging)
# Assay type: cell-based
# Settings: intracellular Ca2+ imaging (fura-2) in cells expressing human VR1 receptors; stimulus (capsaicin or acid) not given
# From the text: VR1 antagonistic activity can be determined by the Ca^2+ imaging assay using human VR1 highly expressing cells. The cells that highly express human VR1 receptors are obtainable from several different conventional methods. The one standard method is cloning from human Dorsal Root Ganglion (DRG) or kidney according to the methods such as described in the journal article; Nature, 389, pp 816-824, 1997. Alternatively VR1 receptors highly expressing human keratinocytes are also known and published in the journal article (Biochemical and Biophysical Research Communications, 291, pp 124-129, 2002). […] Furthermore, the method to up regulate human VR1 gene, which is usually a silent gene or don't produce detectable level of VR1 receptors, is also available to obtain propriety cells. Such genetic modification method was described in detail; Nat. Biotechnol., 19, pp 440-445, 2001.
# The cells that express human VR1 receptors were maintained in culture flask at 37° C. in an environment containing 5% CO2 until use in the assay. The intracellular Ca^2+ imaging assay to determine VR1 antagonistic activities were done by following procedures.
# The culture medium was removed from the flask and fura-2/AM fluorescent calcium indicator was added to the flask at a concentration of 5 μM in the medium. The flask was placed in CO2 incubator and incubated for 1 hour. Then the cells expressing the human VR1 receptors were detached from the flask follow by washing with phosphate buffer saline, PBS(−) and re-suspended in assay buffer. The 80 μl of aliquot of cell suspension (3.75×10^5 cells/ml) was added to the assay plate and the cells were spun down by centrifuge (950 rpm, 20° C., 3 minutes).
# The compounds of the examples were tested in the Human VR1 antagonist assay described above.
# The capsaicin-induced changes in the intracellular calcium concentration were monitored using FDSS 6000 (Hamamatsu Photonics, Japan), a fluorometric imaging system. The cell suspension in Krebs-Ringer HEPES (KRH) buffer (115 mM NaCl, 5.4 mM KCl, 1 mM MgSO4, 1.8 mM CaCl2, 11 mM D-Glucose, 25 mM HEPES, 0.96 mM Na2HPO4, pH 7.3) were pre-incubated with varying concentrations of the test compounds or KRH buffer (buffer control) for 15 minutes at room temperature under the dark condition. Then capsaicin solution, which gives 300 nM in assay mixture, was automatically added to the assay plate by the FDSS 6000.
# The acid-induced changes in the intracellular calcium concentration were monitored using FDSS 6000 (Hamamatsu Photonics, Japan), a fluorometric imaging system. The cell suspension in resting buffer (HBSS supplemented with 10 mM HEPES, pH 7.4) were pre-incubated with varying concentrations of the test compounds or resting buffer (buffer control) for 15 minutes at room temperature under the dark condition. The cells were automatically added the stimulating solution (HBSS supplemented with MES, final assay buffer pH5.8) by the FDSS 6000.
# The monitoring of the changes in the fluorescence signals (λex=340 nm/380 nm, λem=510-520 nm) was initiated at 1 minute prior to the addition of capsaicin solution or acidic buffer and continued for 5 minute.
# Sequence of human VR1 (Q8NER1 whole entry): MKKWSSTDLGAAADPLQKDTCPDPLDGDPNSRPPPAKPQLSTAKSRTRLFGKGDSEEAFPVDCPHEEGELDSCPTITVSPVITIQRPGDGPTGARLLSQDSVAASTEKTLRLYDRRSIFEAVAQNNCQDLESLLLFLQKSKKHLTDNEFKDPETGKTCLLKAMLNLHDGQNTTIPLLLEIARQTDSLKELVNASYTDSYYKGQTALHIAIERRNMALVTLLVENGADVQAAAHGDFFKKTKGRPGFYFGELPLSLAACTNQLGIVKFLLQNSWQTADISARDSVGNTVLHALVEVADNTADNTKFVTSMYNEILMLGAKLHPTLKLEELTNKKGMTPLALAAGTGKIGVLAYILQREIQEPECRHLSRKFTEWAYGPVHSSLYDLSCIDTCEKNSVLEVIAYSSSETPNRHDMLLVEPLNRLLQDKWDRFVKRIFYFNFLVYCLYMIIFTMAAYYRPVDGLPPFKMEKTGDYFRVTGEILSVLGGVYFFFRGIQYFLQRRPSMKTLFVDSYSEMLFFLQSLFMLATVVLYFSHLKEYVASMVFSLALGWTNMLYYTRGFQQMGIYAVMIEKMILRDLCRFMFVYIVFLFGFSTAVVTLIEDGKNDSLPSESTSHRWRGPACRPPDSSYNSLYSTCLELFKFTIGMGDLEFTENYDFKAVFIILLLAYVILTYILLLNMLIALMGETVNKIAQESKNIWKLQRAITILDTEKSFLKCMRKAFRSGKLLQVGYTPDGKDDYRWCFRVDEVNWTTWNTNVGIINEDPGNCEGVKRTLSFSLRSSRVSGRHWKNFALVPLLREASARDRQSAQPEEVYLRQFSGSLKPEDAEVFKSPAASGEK
row,pIC50,SMILES
1,6.48,"Cc1cc([C@@H](C)NC(=O)c2ccc3nc(C(C)(C)C)ccc3c2)c(Cl)cc1O [Example D5, 2-tert-butyl-N-[(1R)-1-(2-chloro-4-hydroxy-5-methylphenyl)ethyl]5 quinoline-6-carboxamide]"
2,7.13,"COc1cc([C@@H](C)NC(=O)c2ccc3nc(C(C)(C)C)ccc3c2)c(Cl)cc1O [Example D1, 2-tert-Butyl-[(1R)-1-(2-chloro-4-hydroxy-5-methoxyphenyl)ethyl]quinoline-6-carboxamide]"
3,7.03,"COc1cc(Cl)c([C@@H](C)NC(=O)c2ccc3cc(C(C)(C)C)ccc3c2)cc1C [Example A1, 6-tert-Butyl-N-[(1R)-1-(2-chloro-4-methoxy-5-methylphenyl)ethyl]-2-naphthamide]"
4,6.75,"COc1cc(CNC(=O)c2ccc3nc(C(C)(C)C)ccc3c2)c(Cl)cc1O [Example D2, 2-tert-Butyl-N-(2-chloro-4-hydroxy-5-methoxybenzyl)quinoline-6-carboxamide]"
5,6.39,"COc1cc(CNC(=O)c2ccc3nc(C(C)(C)C)ccc3c2)c(Br)cc1O [Example D3, N-(2-Bromo-4-hydroxy-5-methoxybenzyl)-2-tert-butylquinoline-6-carboxamide]"
6,6.23,COc1cc(CNC(=O)c2ccc3cc(C(C)(C)C)ccc3n2)c(Cl)cc1O [Example B1]
7,6.60,"COc1cc([C@@H](C)NC(=O)c2ccc3nc(C(C)(C)C)ccc3c2)ccc1O [Example D15, 2-tert-Butyl-N-[(1R)-1-(4-hydroxy-3-methoxyphenyl)ethyl]quinoline-6-carboxamide]"
8,7.50,"Cc1cc([C@H](C)NC(=O)c2ccc3nc(C(C)(C)C)ccc3c2)c(Cl)cc1O [Example D7, 2-tert-Butyl-N-[(1S)-1-(2-chloro-4-hydroxy-5-methylphenyl)ethyl]quinoline-6-carboxamide]"
9,6.74,"COc1cc(Cl)c([C@@H](C)NC(=O)c2ccc3nc(C(C)(C)C(F)(F)F)ccc3c2)cc1C [Example D12, N-[(1R)-1-(2-Chloro-4-methoxy-5-methylphenyl)ethyl]-2-(2,2,2-trifluoro-1,1-dimethylethyl)quinoline-6-carboxamide]"
10,7.50,"Cc1cc([C@@H](C)NC(=O)c2ccc3nc(C(C)(C)C(F)(F)F)ccc3c2)c(Cl)cc1O [Example D13, N-[(1R)-1-(2-Chloro-4-hydroxy-5-methylphenyl)ethyl]-2-(2,2,2-trifluoro-1,1-dimethylethyl)quinoline-6-carboxamide]"
11,7.47,"Cc1cc([C@@H](C)NC(=O)c2ccc3cc(C(C)(C)C)ccc3c2)c(Cl)cc1O [Example A2, 6-tert-Butyl-N-[(1R)-1-(2-chloro-4-hydroxy-5-methylphenyl)ethyl]-2-naphthamide]"
12,6.57,"COc1cc(Cl)c([C@@H](C)NC(=O)c2ccc3nc(C(C)(C)C)ccc3c2)cc1C [Example D4, 2-tert-Butyl-N-[(1R)-1-(2-chloro-4-methoxy-5-methylphenyl)ethyl]quinoline-6-carboxamide]"
13,6.36,"C[C@@H](NC(=O)c1ccc2nc(C(C)(C)C)ccc2c1)c1ccc(CO)cc1 [Example D8, 2-tert-Butyl-N-{(1R)-1-[4-(hydroxymethyl)phenyl]ethyl}quinoline-6-carboxamide]"
14,7.18,"Cc1cc(C(C)NC(=O)c2ccc3nc(C(C)(C)C(F)(F)F)ccc3c2)c(F)cc1CO (stereo not drawn) [Example D14, N-{1-[2-Fluoro-4-(hydroxymethyl)-5-methylphenyl]ethyl}-2-(2,2,2-trifluoro-1,1-dimethylethyl)quinoline-6-carboxamide]"
15,6.18,"Cc1cc([C@@H](C)NC(=O)c2cnc3cc(C(F)(F)F)ccc3c2)c(Cl)cc1O [Example C2, N-[(1R)-1-(2-Chloro-4-hydroxy-5-methylphenyl)ethyl]-7-(trifluoromethyl)quinoline-3-carboxamide]"
16,6.51,"Cc1cc(CNC(=O)c2ccc3nc(C(C)(C)C)ccc3c2)c(Cl)cc1O [Example D10, 2-tert-Butyl-N-(2-chloro-4-hydroxy-5-methylbenzyl)quinoline-6-carboxamide]"
17,6.30,"Cc1cc(CNC(=O)c2ccc3nc(C(C)(C)C)ccc3c2)c(F)cc1O [Example D11, 2-tert-Butyl-N-(2-fluoro-4-hydroxy-5-methylbenzyl)quinoline-6-carboxamide]"
18,6.34 to 6.63,"Oc1cc2c(cc1O)CN(C(=S)NCCc1ccc(Cl)cc1)CCC2 [Capsazepine, reference compound]"
